Like-named read-outs stand apart in the source and are kept apart here.
Assays:
[1] = cited from earlier work; for EN (normalized solvent polarity parameter): water and tetramethylsilane as extreme reference solvents; for ET (solvent polarity parameter): solvatochromic absorption of betaine dye
[2] = cited from earlier work
[3] = Solubility of cobalt ion in the combination solvent; type: physicochemical; conditions: cyclohexanone/water combination solvent
Source text: The above profound and unexpected attributes (considerable increase of dibasic acid solubility combined with considerable decrease of cobalt ion solubility in the novel combination solvent) are primarily responsible for a clean extraction of the cobalt ion with water from the rest of the reaction mixture, which remains dissolved in the combination solvent of the instant invention.

## C1CCCCC1 [Cyclohexane]
[1]
  EN (normalized solvent polarity parameter): 0.006

## CO [Methanol]
[1]
  EN (normalized solvent polarity parameter): 0.762

## CCCCCC [n-Hexane]
[1]
  EN (normalized solvent polarity parameter): 0.009

## O [Water]
[1]
  ET (solvent polarity parameter): 63.1 kcal/mol
  EN (normalized solvent polarity parameter): 1.000

## O=C1CCCCC1 [Cyclohexanone]
[1]
  EN (normalized solvent polarity parameter): 0.281
[2]; 20 °C
  mol % CHxO (solubility of cyclohexanone in water): 1.98% mol %
  wt % CHxO (solubility of cyclohexanone in water): 10.00% wt %
[2]; 25 °C
  mol % CHxO (solubility of cyclohexanone in water): 1.85% mol %
  wt % CHxO (solubility of cyclohexanone in water): 9.39% wt %
[2]; 30 °C
  mol % CHxO (solubility of cyclohexanone in water): 1.73% mol %
  wt % CHxO (solubility of cyclohexanone in water): 8.83% wt %
[2]; 50 °C
  mol % CHxO (solubility of cyclohexanone in water): 1.43% mol %
  wt % CHxO (solubility of cyclohexanone in water): 7.39% wt %
[2]; 70 °C
  mol % CHxO (solubility of cyclohexanone in water): 1.34% mol %
  wt % CHxO (solubility of cyclohexanone in water): 6.95% wt %
[2]; 90 °C
  mol % CHxO (solubility of cyclohexanone in water): 1.44% mol %
  wt % CHxO (solubility of cyclohexanone in water): 7.44% wt %

## cobalt ion
[3]
  solubility of the cobalt ion in the novel combination solvent: decreases considerably

## CC(=O)O [Acetic acid]
[1]
  EN (normalized solvent polarity parameter): 0.648

## CCO [Ethanol]
[1]
  EN (normalized solvent polarity parameter): 0.654

## c1ccc(Oc2ccccc2)cc1 [diphenyl ether]
[1]
  ET (solvent polarity parameter): 35.3 kcal/mol

## OC1CCCCC1 [Cyclohexanol]
[1]
  EN (normalized solvent polarity parameter): 0.500

— US6433220B1 (RPC Inc., priority 1998, dated 2002)
